Test results reported in US20240336572A1, “SUBSTITUTED INDAZOLE PROPIONIC ACID DERIVATIVE COMPOUNDS AND USES THEREOF” (Pfizer Inc., priority 2023, published 2024).

Assays:
[1] = target: T1, AMPK 111 (Homo sapiens, UniProt Q13131+Q9Y478); assay: Biochemical profiling of AMPK activators by AMPK111 (HTRF/TR-FRET assay, SAMS peptide, PP2A dephosphorylation protection); conditions: for EC50: phosphorylated AMPK 111 (α1β1δ1 as printed), 11 point dilution, duplicate, 4-parameter fit; for Emax: phosphorylated AMPK 111, maximal activation
T1 construct: open reading frames encoding the full-length α1, β1 and δ1 subunits of human AMPK; made in house; host or cells: E. coli BL21-CodonPlus (DE3)-RIPL, pET-14b
T1 sequence (Q13131 whole entry): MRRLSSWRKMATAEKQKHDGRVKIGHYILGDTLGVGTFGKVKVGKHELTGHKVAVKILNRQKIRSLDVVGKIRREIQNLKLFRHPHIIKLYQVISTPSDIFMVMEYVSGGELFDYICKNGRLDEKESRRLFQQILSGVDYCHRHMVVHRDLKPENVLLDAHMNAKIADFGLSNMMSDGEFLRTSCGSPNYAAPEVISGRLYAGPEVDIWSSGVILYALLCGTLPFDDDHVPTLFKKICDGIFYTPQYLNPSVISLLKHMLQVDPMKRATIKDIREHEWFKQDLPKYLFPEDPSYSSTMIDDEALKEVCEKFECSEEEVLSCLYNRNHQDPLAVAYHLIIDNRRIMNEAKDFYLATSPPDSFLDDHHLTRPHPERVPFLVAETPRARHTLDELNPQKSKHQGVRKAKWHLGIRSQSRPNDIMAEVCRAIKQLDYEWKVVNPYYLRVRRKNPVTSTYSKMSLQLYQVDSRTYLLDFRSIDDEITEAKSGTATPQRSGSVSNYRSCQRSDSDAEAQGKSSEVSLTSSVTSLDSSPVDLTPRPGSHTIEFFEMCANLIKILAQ
T1 sequence (Q9Y478 whole entry): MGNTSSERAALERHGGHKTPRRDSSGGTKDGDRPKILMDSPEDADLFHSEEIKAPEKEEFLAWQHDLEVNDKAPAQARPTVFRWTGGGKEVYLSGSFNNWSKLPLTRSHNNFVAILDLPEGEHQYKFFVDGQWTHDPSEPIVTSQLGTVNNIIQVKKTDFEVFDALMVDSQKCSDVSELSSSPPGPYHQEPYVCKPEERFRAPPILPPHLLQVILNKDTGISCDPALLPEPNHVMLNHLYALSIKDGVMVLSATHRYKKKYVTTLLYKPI
T1 sequence (P54619 whole entry partner): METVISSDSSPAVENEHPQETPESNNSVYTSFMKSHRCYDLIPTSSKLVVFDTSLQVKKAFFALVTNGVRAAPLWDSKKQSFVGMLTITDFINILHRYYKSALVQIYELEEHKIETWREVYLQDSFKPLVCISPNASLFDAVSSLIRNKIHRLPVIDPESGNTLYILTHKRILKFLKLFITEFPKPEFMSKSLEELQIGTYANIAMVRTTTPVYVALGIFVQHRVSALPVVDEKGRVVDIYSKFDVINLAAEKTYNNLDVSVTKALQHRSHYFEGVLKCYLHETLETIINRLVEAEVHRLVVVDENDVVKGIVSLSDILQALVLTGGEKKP

[2] = target: T2, AMPK 221 (Homo sapiens, UniProt O43741+P54646); assay: Biochemical profiling of AMPK activators by AMPK221 (HTRF/TR-FRET assay, SAMS peptide, PP2A dephosphorylation protection); conditions: for EC50: phosphorylated AMPK 221 (α2β2δ1), 11 point dilution, duplicate, 4-parameter fit; for Emax: phosphorylated AMPK 221, maximal activation
T2 construct: open reading frames encoding the full-length α2, β2 and δ1 subunits of human AMPK; made in house; host or cells: E. coli BL21-CodonPlus (DE3)-RIPL, pET-14b
T2 sequence (P54646 whole entry): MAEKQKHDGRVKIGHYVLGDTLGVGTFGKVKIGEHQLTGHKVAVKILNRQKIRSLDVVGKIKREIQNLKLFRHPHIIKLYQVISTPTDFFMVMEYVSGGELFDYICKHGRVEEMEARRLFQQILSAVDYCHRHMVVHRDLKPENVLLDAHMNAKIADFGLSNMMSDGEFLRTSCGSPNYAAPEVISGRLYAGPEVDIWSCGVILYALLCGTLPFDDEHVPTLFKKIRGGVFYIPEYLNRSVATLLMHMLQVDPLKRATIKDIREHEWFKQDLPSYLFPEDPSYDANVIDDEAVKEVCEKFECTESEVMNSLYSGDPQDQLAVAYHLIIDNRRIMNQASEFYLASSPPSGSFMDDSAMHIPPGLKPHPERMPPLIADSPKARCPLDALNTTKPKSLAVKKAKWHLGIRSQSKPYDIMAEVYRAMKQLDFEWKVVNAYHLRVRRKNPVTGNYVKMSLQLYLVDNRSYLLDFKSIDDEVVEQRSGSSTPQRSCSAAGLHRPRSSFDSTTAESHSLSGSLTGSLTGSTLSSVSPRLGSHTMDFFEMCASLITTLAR
T2 sequence (O43741 whole entry): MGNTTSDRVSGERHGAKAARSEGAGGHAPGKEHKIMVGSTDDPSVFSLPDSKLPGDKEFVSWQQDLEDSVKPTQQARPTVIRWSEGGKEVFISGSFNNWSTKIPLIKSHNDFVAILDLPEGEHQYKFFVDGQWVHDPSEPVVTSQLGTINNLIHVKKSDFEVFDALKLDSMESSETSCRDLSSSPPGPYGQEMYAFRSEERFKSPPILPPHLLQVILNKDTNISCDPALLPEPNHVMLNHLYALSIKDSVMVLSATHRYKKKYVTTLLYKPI
T2 sequence (P54619 whole entry partner): as the sequence (P54619 whole entry partner) above

[3] = Metabolite profile in liver microsomes, hepatocytes, recombinant human P450 and UGT enzymes, and animal plasma; type: in vitro ADME; conditions: liver microsomes and hepatocytes (mouse, rat, rabbit, dog, monkey, human)
Description: The metabolite profile of Example 1 is evaluated in liver microsomes and hepatocytes (mouse, rat, rabbit, dog, monkey, and human), recombinant human cytochrome P450 enzymes, recombinant human UGT enzymes, and plasma from animals (mouse, rat, and dog).

| Structure (SMILES) | EC50 [1] [nM] | Emax [1] [%] | EC50 [2] [nM] | Emax [2] [%] | metabolite profile [3] |
| --- | --- | --- | --- | --- | --- |
| O=C(O)CCc1n[nH]c2cc(Cl)c(-c3ccc(-c4cccc(F)c4O)cc3)cc12 [Example 22, 3-(6-chloro-5-(3′-fluoro-2′-hydroxy-[1,1′-biphenyl]-4-yl)-1H-indazol-3-yl)propanoic acid] | 111 | 74 | 100 | 59 |  |
| O=C(O)CCc1n[nH]c2cc(Cl)c(-c3ccc(-c4ccccc4O)cc3)cc12 [Example 1, 3-(6-Chloro-5-(2′-hydroxy-[1,1′-biphenyl]-4-yl)-1H-indazol-3-yl)propanoic acid] | 47 | 75 | 88 | 57 | oxidation and glucuronidation |
| O=C(O)CCc1n[nH]c2cc(Cl)c(-c3ccc(-c4csc(CO)n4)cc3)cc12 [Example 66, 3-(6-chloro-5-(4-(2-(hydroxymethyl)thiazol-4-yl)phenyl)-1H-indazol-3-yl)propanoic acid] | 365 | 74 | 1090 | 63 |  |
| O=C(O)CCc1n[nH]c2cc(Cl)c(-c3ccc(-c4ccccc4O)cc3)nc12 [Example 73, 3-(6-chloro-5-(2′-hydroxy-[1,1′-biphenyl]-4-yl)-1H-pyrazolo[4,3-b]pyridin-3-yl)propanoic acid] | 26 | 86 | 2110 | 30 |  |
